Absorption maximum data for 50 compounds are collected here from the Deep4Chem optical property database.

This series in a line: solvent given as SMILES.

Consider `CCCCN(CCCC)c1ccc(/C=C/c2ccc3nc(-c4ccccc4)c(/C=C/c4ccc(N(C)C)cc4)nc3c2)cc1`, for which the absorption maximum runs as follows: (in C1COCCO1) 458 nm; (in CC#N) 462 nm; (in ClCCl) 468 nm.

`C[Si]1(C)c2ccccc2-c2ccccc21` registered an absorption maximum (in ClCCl) of 336 nm.

Consider `COc1ccc(-n2nc(C#N)c(NC3CCCCC3)n2)cc1`, for which the absorption maximum runs as follows: (in CC#N) 330 nm; (in CCCCCC) 325 nm; (in CCO) 333 nm; (in CN(C)C=O) 336 nm; (in ClC(Cl)Cl) 330 nm.

Take `O=[N+]([O-])c1ccc(C#Cc2ccc3ccc(C#Cc4ccc([N+](=O)[O-])cc4)cc3c2)cc1`: the absorption maximum (in ClCCl) is given as 347 nm.

Consider `O=P(c1c2ccccc2cc2ccccc12)(c1c2ccccc2cc2ccccc12)c1c2ccccc2cc2ccccc12`, for which, under “in C1CCOC1”, the absorption maximum is given as 411 nm.

`COc1ccc(-c2[nH]c(=O)n3c2-c2ccccc2C3=O)c(OC)c1` gave an absorption maximum (in CC#N) of 401 nm, an absorption maximum (in CO) of 401 nm and an absorption maximum (in ClCCl) of 406 nm.

As to `CC1(C)c2ccccc2N(c2ccc(-c3nnc(-c4ccccc4O)o3)cc2)c2ccccc21`, the absorption maximum reads like this: (in C1CCOC1) 361 nm; (in C1COCCO1) 363 nm; (in CC#N) 358 nm; (in CC(C)=O) 361 nm; (in CCCCCC) 362 nm; (in CCO) 361 nm. The absorption maximum by setting is: (in CCOC(C)=O) 360 nm; (in CN(C)C=O) 360 nm; (in CS(C)=O) 364 nm; (in Cc1ccccc1) 362 nm; (in ClC(Cl)Cl) 365 nm; (in ClCCCl) 368 nm. Moreover, the absorption maximum (in ClCCl) is reported as 366 nm and the absorption maximum (in Clc1ccccc1) is on record as 367 nm.

Regarding `CCn1c2ccccc2oc2c(C#N)c3oc4ccccc4oc3c(C#N)c21`, the absorption maximum (in ClC(Cl)Cl) was 470 nm.

Consider `CCCCCCCCC1(CCCCCCCC)c2ccccc2-c2ccc(-c3nnc(-c4ccc(-n5c6ccc(C(C)(C)C)cc6c6cc(C(C)(C)C)ccc65)cc4)o3)cc21`, for which, where the note is “in Cc1ccccc1”, the absorption maximum is 352 nm.

Regarding `CC(=O)c1c(N[C@@H](CS)C(=O)O)c2ccc(N(C)C)cc2oc1=O`, the absorption maximum (in ClCCl) is listed as 372 nm.

Compound `COc1ccc(-c2ccc(-c3ccc(F)cc3)cc2)cc1` showed an absorption maximum (in C1COCCO1) of 291 nm.

Turning to `CCC(C)(C)c1ccc(-c2ccc3c(c2)C(CCOC)(CCOC)c2cc(C(C)(C)CC)ccc2-3)cc1`, the absorption maximum (in C1CCCCC1) is 318 nm.

Turning to `Cc1ccc(-c2ccc3ccc4cc(C(C)(C)C)cc5ccc2c3c45)cc1`, the absorption maximum is on record as 342 nm (in C1CCOC1) and 342 nm (in ClCCl).

In turn, `c1ccc(-c2nc(-c3ccccc3)nc(-c3ccc(-n4c5ccccc5c5cc(-c6ccc7oc8ccccc8c7c6)ccc54)cc3)n2)cc1` had an absorption maximum (in Cc1ccccc1) of 370 nm.

With `C#CCNC1=C2C=C(c3cc4n(c3)[B-](F)(F)[N+]3=CC=CC3=C4c3c(C)cc(C)cc3C)C(C)=[N+]2[B-](F)(F)n2c(C)ccc21`, the absorption maximum is 568 nm (in C1CCCCC1) and 568 nm (in CCOC(C)=O).

Regarding `Fc1cc(-c2nc(-c3ccccc3)nc(-c3ccccc3)n2)ccc1-n1c2ccccc2c2c3c(ccc21)C1(c2ccccc2-c2ccccc21)c1ccccc1-3`, the absorption maximum (in Cc1ccccc1) came to 370 nm.

`Cc1ccc(-c2ccc(/C=C/c3ccc([N+](=O)[O-])cc3)cn2)nc1`: the absorption maximum (in CC#N) was determined as 349 nm.

`Clc1ccccc1N1c2sc3ccccc3c2Sc2sc3ccccc3c21`: the absorption maximum (in ClCCl) is on record as 314 nm.

In the case of `CN(C)c1ccc(-c2nc3cc(C(F)(F)F)ccc3n2-c2ccccc2)cc1`, the absorption maximum (in CC#N) is given as 332 nm.

`CCCCn1c2ccc(-c3ccc(OC)cc3)cc2c2ccc3c4cc(-c5ccc(OC)cc5)ccc4n(CCCC)c3c21` returned an absorption maximum (in ClC(Cl)Cl) of 338 nm.

For the compound `c1ccc(-c2nc(-c3ccccc3)nc(-c3ccc(-n4c5ccccc5c5cc6c7ccccc7n7c8ccccc8c(c54)c67)cc3)n2)cc1`, for the setting “in Cc1ccccc1”, the absorption maximum is listed as 383 nm.

Regarding `COc1cccc(-c2nc(-c3ccccc3)c(-c3ccccc3)[nH]2)c1`, under “in CO”, the absorption maximum came out at 300 nm.

`CCOC(=O)c1c2c3c(ccc(OC)c3c3cc4c(cc13)[Si](C)(C)O[Si]4(C)C)N(C)C2=O` gave an absorption maximum (in CC#N) of 378 nm.

`CCCCN1C(=O)C(=C/C=C/C=C/C=C2N(CCCC)c3ccccc3N2CCCC)C(=O)N(CCCC)C1=S`: the absorption maximum came out at 540 nm (in CC#N); 678 nm (in CCCCCC); 492 nm (in CCO); 549 nm (in CN(C)C=O); 483 nm (in CO); 689 nm (in Cc1ccccc1). For the same compound, the absorption maximum (in ClC(Cl)Cl) is recorded as 658 nm, the absorption maximum (in ClCCl) was 642 nm and the absorption maximum (in OCC(F)(F)F) is 464 nm.

On to `CC(C)(C)c1ccc2oc3nc4oc5ccc(N(c6ccccc6)c6ccccc6)cc5c4cc3c2c1`, for which the absorption maximum (in ClC(Cl)Cl) amounted to 342 nm.

Where the note is “in ClC(Cl)Cl”, `F[B-]1(F)OC(c2ccc(N3CCCCC3)cc2)=Cc2cccc[n+]21` gave an absorption maximum of 421 nm.

On to `c1ccc2cc(-n3c4ccccc4c4ccccc43)ccc2c1`, for which the absorption maximum runs as follows: (in C1CCCCC1) 318 nm; (in C1CCOC1) 320 nm; (in CC#N) 321 nm; (in CCO) 320 nm; (in CCOC(C)=O) 318 nm; (in CCOCC) 319 nm. Further, the absorption maximum (in CO) is on record as 319 nm, the absorption maximum (in Cc1ccccc1) is on record as 319 nm and the absorption maximum (in ClC(Cl)Cl) amounted to 321 nm.

On to `CCOC(=O)c1c(-c2c(Cl)c3ccccc3oc2=O)nn(-c2ccccc2)c1C(=O)OCC`, for which, where the note is “in ClCCl”, the absorption maximum is given as 322 nm.

`O=c1c2cc(F)ccc2nc2n1[B-](F)(F)[n+]1ccccc1-2` returned an absorption maximum (in CC#N) of 337 nm and an absorption maximum (in ClCCl) of 350 nm.

On to `COc1cc2c(cc1OC)C1=C[C@H](c3ccc(C)cc3)C3(C(C#N)=C(C#N)N1CC2)c1cc(Br)ccc1-c1ccc(Br)cc13`, for which, for the setting “in ClCCl”, the absorption maximum is 315 nm.

For the compound `CC1(C)c2ccccc2N(c2ccccc2)c2ccc(-c3ccc(-c4ccc5c(c4)C(C)(C)c4ccccc4N5c4ccccc4)c4nsnc34)cc21`, the absorption maximum (in Cc1ccccc1) is 475.42 nm.

Turning to `CN(C)c1ccc(-c2cc(-c3ccc(C#N)cc3)nn2C)cc1`, the absorption maximum is recorded as 288 nm (in C1CCCCC1); 292 nm (in CC#N); 290 nm (in CCOC(C)=O); 289 nm (in CCOCC); 295 nm (in CN(C)C=O); 292 nm (in Cc1ccccc1). This compound also had an absorption maximum (in ClCCl) of 292 nm.

In the case of `CC(C)(C)c1ccc2oc3nc4oc5ccc(-n6c7ccccc7c7ccccc76)cc5c4cc3c2c1`, for the setting “in ClC(Cl)Cl”, the absorption maximum stood at 348 nm.

Regarding `O=C(c1ccc(N2c3ccccc3Oc3ccccc32)cc1)c1cccc(C(=O)c2ccc(N3c4ccccc4Oc4ccccc43)cc2)c1`, the absorption maximum (in Cc1ccccc1) was found to be 416 nm.

In turn, `Nc1ccc2cn[nH]c2c1` returned an absorption maximum (in C1CCCCC1) of 296 nm.

Turning to `c1ccc2c(-c3cc(-c4nccs4)nc(-c4nccs4)c3)cccc2c1`, the absorption maximum reads like this: (in CC#N) 324 nm; (in CCCCCC) 325 nm; (in CO) 325 nm; (in ClC(Cl)Cl) 330 nm.

For the setting “in CC#N”, `Cc1ccc(-c2ccc(/C=C/c3ccc(N(C)C)cc3)cn2)nc1` showed an absorption maximum of 383 nm.

In the case of `CC1(C)c2ccccc2N(c2ccc(-c3cc(C#N)c(C#N)cc3-c3ccc(N4c5ccccc5C(C)(C)c5ccccc54)cc3)cc2)c2ccccc21`, under “in Cc1ccccc1”, the absorption maximum came out at 384 nm.

`Cn1ccc(-c2nc3ccccc3nc2/C=C/N2CCCC2)c1`: for the setting “in CC#N”, the absorption maximum was 445 nm.

For the compound `O=C1/C(=C\c2ccc3oc4ccccc4c3c2)S(=O)(=O)c2ccccc21`, the absorption maximum by setting is: (in C1CCOC1) 368 nm; (in C1COCCO1) 369 nm; (in CC#N) 365 nm; (in CC(C)=O) 365 nm; (in CCOC(C)=O) 366 nm; (in CN(C)C=O) 367 nm. The absorption maximum runs as follows: (in CO) 367 nm; (in CS(C)=O) 369 nm; (in Cc1ccccc1) 373 nm; (in ClC(Cl)Cl) 378 nm; (in ClCCl) 372 nm.

In the case of `S=P1(c2ccccc2)c2cccc3c4c5ccccc5c5ccccc5c4c4ccc1n4c23` (stereo not drawn), the absorption maximum (in ClCCl) is listed as 422 nm.

On to `F[B-]1(F)n2c(/C=C/c3ccc(C(=C(c4ccccc4)c4ccccc4)c4ccccc4)cc3)ccc2C(c2ccccc2)=C2C=CC(/C=C/c3ccc(C(=C(c4ccccc4)c4ccccc4)c4ccccc4)cc3)=[N+]21`, for which, where the note is “in C1CCOC1”, the absorption maximum amounted to 665 nm.

The compound `Nc1ccccc1/C=C/C(F)(F)F` registered an absorption maximum (in C1CCOC1) of 347 nm.

For the setting “in ClCCl”, `c1ccc(N(c2ccccc2)c2ccc(-c3ncnc4ccccc34)cc2)cc1` returned an absorption maximum of 380 nm.

On to `Cc1cc(C)c(B(c2c(C)cc(C)cc2C)c2cc3ccc4ccccc4c3c3c2ccc2ccccc23)c(C)c1`, for which the absorption maximum is 413 nm (in C1CCCCC1); 413 nm (in C1CCOC1); 410 nm (in CC#N); 413 nm (in ClC(Cl)Cl); 415 nm (in c1ccccc1).

In turn, `c1ccc(-c2nc(-c3ccccc3)nc(-n3c4ccccc4c4cc(-n5c6ccccc6c6ccccc65)ccc43)n2)cc1` gave an absorption maximum (in C1CCOC1) of 321.23 nm.

The compound `CCN(CC)c1cc(F)c(C(=O)c2cc(F)c(F)cc2F)cc1F` returned an absorption maximum (in CCO) of 361 nm.

Consider `Fc1ccc2sc3nc(-c4ccccc4)sc3c2c1`, for which the absorption maximum (in CS(C)=O) is on record as 345 nm.

`COc1ccc(C2=c3sc(-c4ccc(OC)cc4)cc3=[N+]3C2=Nc2c(-c4ccc(OC)cc4)c4sc(-c5ccc(OC)cc5)cc4n2[B-]3(F)F)cc1` came in with an absorption maximum (in ClC(Cl)Cl) of 788 nm.

With `O=S1(=O)C(c2cccs2)=C(c2cccs2)c2ccccc21`, the absorption maximum (in C1CCOC1) was 372 nm.
